In patent US5156956A, “Transgultaminase” (Ajinomoto Co., Inc., priority 1987, dated 1992):
Residues, ends and D or L forms follow the SMILES beside them. *: point of attachment. Cbz = O=C(OCc1ccccc1)*

Legend:
[1] = biological target: T1, BTG-1 (Streptomyces mobaraensis, UniProt P81453); assay: Influence of metal ions on activity; assay type: biochemical, Streptoverticillium mobaraense IFO 13819; settings: metal ion 1 mM; None = 100; 30 min
T1 construct: BTGase is dissolved in the culture solution and can be harvested from the culture filtrate; endogenous in cells; host or cells: Streptoverticillium mobaraense IFO 13819 (natural producer; purified from culture filtrate)
T1 sequence (P81453 77-407): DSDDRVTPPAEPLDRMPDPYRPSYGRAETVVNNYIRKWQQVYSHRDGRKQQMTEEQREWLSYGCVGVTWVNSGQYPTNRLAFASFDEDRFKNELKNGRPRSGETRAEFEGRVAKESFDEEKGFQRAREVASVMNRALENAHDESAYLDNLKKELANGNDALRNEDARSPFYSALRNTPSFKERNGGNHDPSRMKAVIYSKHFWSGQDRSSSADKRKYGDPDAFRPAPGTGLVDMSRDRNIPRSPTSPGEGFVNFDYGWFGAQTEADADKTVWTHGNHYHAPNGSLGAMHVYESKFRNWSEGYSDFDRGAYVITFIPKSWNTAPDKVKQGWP
Procedure: (§1) Measurement of the activity of BTGase is carried out by performing a reaction using benzyloxycarbonyl-L-glutaminyl glycine and hydroxylamine as substrates in the absence of Ca^2+, forming an iron complex with the resulting hydroxamic acid in the presence of trichloroacetic acid, measuring absorption at 525 nm and determining the amount of hydroxamic acid by a calibration curve to calculate the activity. The BTGase activity is measured by the method described below, unless otherwise indicated.
(§2) To 0.05 ml of an enzyme solution is added 0.5 ml of Reagent A and they are mixed with each other. After reacting at 37° C. for 30 minutes, Reagent B is added thereto to discontinue the reaction and form an Fe complex. Thereafter, absorbance is measured at 525 nm. […] Separately, a calibration curve is prepared using L-glutamic acid γ-monohydroxamio acid instead of the enzyme solution, and the amount of hydroxamic acid produced is determined by the difference in absorbance described above. An enzyme activity which produces 1 μmol of hydroxamic acid per 1 minute is defined as 1 unit.

[2] = biological target: T2, BTG-2 (Streptomyces griseocarneus, UniProt A0ABX7RSJ1); assay type: biochemical, Streptoverticillium griseocarneum IFO 12776; settings: metal ion 1 mM; None = 100; 30 min
T2 construct: Ca2+-independent; made as pre-pro-protein
Procedure: as §1, §2

[3] = biological target: T3, BTG-3 (Streptomyces cinnamoneus, UniProt Q8GR90); assay: Influence of metal ions on activity; assay type: biochemical; settings: metal ion 1 mM; None = 100; 30 min
T3 construct: Ca2+-independent; made as pre-pro-protein
T3 sequence (Q8GR90 86-416): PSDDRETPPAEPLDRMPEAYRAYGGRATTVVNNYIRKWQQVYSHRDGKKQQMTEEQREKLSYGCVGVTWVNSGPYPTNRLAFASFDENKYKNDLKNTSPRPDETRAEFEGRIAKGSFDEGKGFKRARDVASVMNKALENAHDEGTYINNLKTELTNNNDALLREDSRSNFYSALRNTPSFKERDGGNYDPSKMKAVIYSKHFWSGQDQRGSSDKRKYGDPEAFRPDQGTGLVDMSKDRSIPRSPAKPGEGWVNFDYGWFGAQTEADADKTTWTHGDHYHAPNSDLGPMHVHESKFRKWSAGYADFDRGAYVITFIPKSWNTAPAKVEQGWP
Procedure: as §1, §2

[4] = biological target: T1, BTG-1; assay: Substrate specificity: synthetic substrates with hydroxylamine; assay type: biochemical, Streptoverticillium mobaraense IFO 13819; settings: for Reactivity of substrate with BTG-1 (relative, Table 1): substrate 5 mM, with hydroxylamine; for Substrate specificity (%) BTG-1: Table 4
Procedure: as §1, §2
(§3) Using each BTGase, reactions of various synthetic substrates with hydroxylamine were examined. […] In this case, the concentration of various synthetic substrates is 5 mM. In the table, CBZ, Gln, Gly and Asn are abbreviations for benzyloxycarbonyl group, glutaminyl group, glycyl group and asparaginyl group, respectively.

[5] = biological target: T2, BTG-2; assay: as above; assay type: biochemical, Streptoverticillium griseocarneum IFO 12776; settings: for Reactivity of substrate with BTG-2 (relative, Table 1): substrate 5 mM, with hydroxylamine; for Substrate specificity (%) BTG-2: Table 4
Procedure: as §1, §2, §3

[6] = biological target: T3, BTG-3; assay: as above; assay type: biochemical; settings: for Reactivity of substrate with BTG-3 (relative, Table 1): substrate 5 mM, with hydroxylamine; for Substrate specificity (%) BTG-3: Table 4
Procedure: as §1, §2, §3

[7] = tested on: BTGase; assay: Substrate specificity, statement on all BTGases; assay type: biochemical, Streptoverticillium; settings: substrate 5 mM, with hydroxylamine
Procedure: as §3

[8] = biological target: T4, MTGase (transglutaminase of guinea pig liver) (UniProt P08587); assay: Substrate specificity: synthetic substrates; assay type: biochemical; settings: Table 4
T4 construct: from tissue; host or cells: guinea pig liver
T4 sequence (P08587 1-690): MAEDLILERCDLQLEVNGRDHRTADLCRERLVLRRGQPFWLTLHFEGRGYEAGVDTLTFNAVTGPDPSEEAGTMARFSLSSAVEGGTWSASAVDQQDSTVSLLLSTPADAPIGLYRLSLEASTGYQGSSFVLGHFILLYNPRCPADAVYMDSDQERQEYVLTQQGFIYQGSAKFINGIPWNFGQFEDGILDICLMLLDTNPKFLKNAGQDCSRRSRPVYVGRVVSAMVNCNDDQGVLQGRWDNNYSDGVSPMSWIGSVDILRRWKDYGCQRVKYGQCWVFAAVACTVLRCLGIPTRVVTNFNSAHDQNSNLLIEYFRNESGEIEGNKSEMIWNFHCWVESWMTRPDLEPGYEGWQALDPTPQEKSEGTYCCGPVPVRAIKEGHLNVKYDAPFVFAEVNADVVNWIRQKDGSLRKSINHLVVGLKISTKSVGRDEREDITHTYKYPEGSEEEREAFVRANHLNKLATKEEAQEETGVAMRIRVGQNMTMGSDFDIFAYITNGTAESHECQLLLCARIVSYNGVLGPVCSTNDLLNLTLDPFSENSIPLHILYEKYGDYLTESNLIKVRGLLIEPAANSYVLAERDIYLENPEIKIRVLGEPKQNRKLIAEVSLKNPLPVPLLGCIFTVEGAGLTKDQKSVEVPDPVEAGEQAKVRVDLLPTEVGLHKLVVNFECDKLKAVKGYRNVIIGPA
Procedure: Next, properties of BTGases are compared to those of guinea pig liver-derived transglutaminase. The guinea pig liver-derived transglutaminase was prepared by the method described in Published Unexamined Japanese Patent Application No. 149645/83. As will be apparent from Tables 4 and 5, various differences in enzymological properties are noted between transglutaminase of guinea pig liver (hereafter referred to as MTGase) which has been mainly investigated heretofore and BTGases derived from actinomycetes; in particular, differences are noted in temperature stability, molecular weight, isoelectric point and substrate specificity. Further, a difference is noted in that the BTGases of the present invention act in the presence and absence of Ca^2+. Therefore, the respective enzymes of the present invention are different from MTGase in their properties.

[9] = biological target: T3, BTG-3; assay: biochemical; settings: for inhibition at 1000 µM: read-out: BTG-3 (%) activity with inhibitor
Procedure: as §1, §2

[10] = biological target: T2, BTG-2; assay: biochemical; design: species or system Streptoverticillium griseocarneum IFO 12776; settings: for inhibition at 1000 µM: read-out: BTG-2 (%) activity with inhibitor
Procedure: as §1, §2

[11] = biological target: T1, BTG-1; assay: biochemical; design: species or system Streptoverticillium mobaraense IFO 13819; settings: for inhibition at 1000 µM: read-out: BTG-1 (%) activity with inhibitor
Procedure: as §1, §2

[12] = tested on: all BTGases
[13] = inhibitor 1 mM, 25° C. for 30 minutes, None = 100

SMILES	BTG-1 (%) activity with metal ion [1] [%]	BTG-2 (%) activity with metal ion [2] [%]	BTG-3 (%) activity with metal ion [3] [%]	Reactivity of substrate with BTG-1 (relative, Table 1) [4]	Reactivity of substrate with BTG-2 (relative, Table 1) [5]	Reactivity of substrate with BTG-3 (relative, Table 1) [6]	other results
[Ba+2].[Cl-].[Cl-] [BaCl2]	101	99	105	–	–	–	–
NC(=O)C[C@H](NC(=O)OCc1ccccc1)C(=O)NCC(=O)O [CBZ--Asn--Gly, benzyloxycarbonylasparaginyl glycine] (Cbz-Asn-Gly-OH)	–	–	–	0	0	0	Reactivity of synthetic substrate with the BTGases (in words) [7]: No BTGase reacts
NC(=O)CC[C@H](NC(=O)OCc1ccccc1)C(=O)O [CBZ--Gln, benzyloxycarbonyl glutamine]	–	–	–	0	0	0	Reactivity of synthetic substrate with the BTGases (in words) [7]: No BTGase reacts
NC(=O)CC[C@H](NC(=O)OCc1ccccc1)C(=O)N[C@@H](CCC(N)=O)C(=O)NCC(=O)O [CBZ--Gln--Gln--Gly] (Cbz-Gln-Gln-Gly-OH)	–	–	–	38	39	35	Substrate specificity (%) BTG-1 [4]: 38%; Substrate specificity (%) MTGase [8]: 288%; Substrate specificity (%) BTG-2 [5]: 39%; Substrate specificity (%) BTG-3 [6]: 35%
NC(=O)CC[C@H](NC(=O)OCc1ccccc1)C(=O)NCC(=O)O [CBZ--Gln--Gly, benzyloxycarbonylglutaminyl glycine] (Cbz-Gln-Gly-OH)	–	–	–	100	100	100	Substrate specificity (%) BTG-1 [4]: 100%; Substrate specificity (%) MTGase [8]: 100%; Substrate specificity (%) BTG-2 [5]: 100%; Substrate specificity (%) BTG-3 [6]: 100%; Reactivity of synthetic substrate with the BTGases (in words) [7]: reactivity is the highest
CCOC(=O)CNC(=O)[C@H](CCC(N)=O)NC(=O)OCc1ccccc1 [CBZ--Gln--Gly--OEt] (Cbz-Gln-Gly-OEt)	–	–	–	63	44	42	Substrate specificity (%) BTG-1 [4]: 63%; Substrate specificity (%) MTGase [8]: 122%; Substrate specificity (%) BTG-2 [5]: 44%; Substrate specificity (%) BTG-3 [6]: 42%
NC(=O)CC[C@H](NC(=O)CNC(=O)OCc1ccccc1)C(=O)NCC(=O)NCC(=O)O [CBZ--Gly--Gln--Gly--Gly] (Cbz-GQGG-OH)	–	–	–	8	12	11	Substrate specificity (%) BTG-1 [4]: 8%; Substrate specificity (%) MTGase [8]: 126%; Substrate specificity (%) BTG-2 [5]: 12%; Substrate specificity (%) BTG-3 [6]: 11%
NC(=O)CC[C@H](NC(=O)CNC(=O)CNC(=O)OCc1ccccc1)C(=O)NCC(=O)O [CBZ--Gly--Gly--Gln--Gly] (Cbz-GGQG-OH)	–	–	–	23	58	60	Substrate specificity (%) BTG-1 [4]: 23%; Substrate specificity (%) MTGase [8]: 27%; Substrate specificity (%) BTG-2 [5]: 58%; Substrate specificity (%) BTG-3 [6]: 60%
[Cl-].[Cl-].[Co+2] [CoCl2]	103	103	103	–	–	–	–
O=C(O)CN(CCN(CC(=O)O)CC(=O)O)CC(=O)O [EDTA]	–	–	–	–	–	–	inhibition at 1000 µM [9]: 99%; inhibition at 1000 µM [10]: 98%; inhibition at 1000 µM [11]: 102%
[Cl][Fe]([Cl])[Cl] [FeCl3]	96	104	106	–	–	–	–
NCC(=O)N[C@@H](CCC(N)=O)C(=O)NCC(=O)O [Gly--Gln--Gly, glycylglutaminyl glycine] (H-Gly-Gln-Gly-OH)	–	–	–	0	0	0	Reactivity of synthetic substrate with the BTGases (in words) [7]: No BTGase reacts
[Cl-].[K+] [KCl]	96	99	105	–	–	–	–
[Cl-].[Cl-].[Mg+2] [MgCl2]	–	104	103	–	–	–	–
[Cl][Mn][Cl] [MnCl2]	–	97	97	–	–	–	–
O=C(O)CI [Monoiodoacetic acid]	–	–	–	–	–	–	inhibition at 1000 µM [9]: 67%; inhibition at 1000 µM [10]: 50%; Effect of inhibitor on activity of all BTGases (in words) [12]: inhibited; inhibition at 1000 µM [11]: 64%
[Cl-].[Na+] [NaCl]	99	102	101	–	–	–	–
[Cl][Ni][Cl] [NiCl2]	–	100	–	–	–	–	–
O=S(=O)(F)Cc1ccccc1 [PMSF, phenylmethylsulfonyl fluoride]	–	–	–	–	–	–	BTG-3 (%) activity with inhibitor [9, 13]: 101%; BTG-2 (%) activity with inhibitor [10, 13]: 95%; BTG-1 (%) activity with inhibitor [11, 13]: 104%
CC(=O)[O-].CC(=O)[O-].[Pb+2] [Pb(CH3 COO)2]	97	97	100	–	–	–	–
[Cl-].[Cl-].[Sr+2] [SrCl2]	100	101	100	–	–	–	–
